Test results reported in patent publication US10828269B2, “Reducing muscle atrophy by administering astaxanthin” (FUJI CHEMICAL INDUSTRIES CO., LTD., priority 2004, dated 2020).

How the values were obtained:
[1] = tested on: Type II diabetic female db/db mice; experiment: Onset of diabetic complication in db/db mice (urine albumin, urine 8-OHdG, blood glucose, kidney histopathology); type: in vivo, mouse
Experimental: Type II diabetic female db/db mice and non-diabetic db/m were purchased from Clea Japan, Inc. Mice were bred under the conditions with a 12 hours light-dark cycle at a temperature of 21° C. to 25° C. For acclimation, mice were fed CE-2 (Clea Japan, Inc.) with free access to water for one week. The mice were divided into three groups each consisting of 8 mice (non-diabetic db/m, diabetic db/db, and astaxanthin-administered db/db) and each group was bred with feed ad libitum. Mice in astaxanthin-administered group were fed a diet in which 0.02% astaxanthin in terms of free astaxanthin was compounded with CE-2. Each group was bred for 12 weeks, and body weight, blood glucose levels, 8-OHdG levels in urine, albumin levels in urine, and kidney histopathology, were measured. Astaxanthin used here was AstaReal (registered trademark, Fuji Chemical Industry Co., Ltd.) 50F, which is oil composed of astaxanthin fatty acid ester and triglycerides and contains 5% astaxanthin in terms of free astaxanthin.
FIG. 1 is a photomicrograph of glomerulus.

[2] = tested on: gastrocnemius of Wistar male rats; experiment: Muscle atrophy test (sciatic nerve of left leg cut); type: in vivo, rat
Experimental: 9-week-old Wistar male rats were bred each being fed a normal diet for breeding and water ad libitum under the conditions with a 12 hours light-dark cycle at a temperature of 21° C. to 25° C. and were accustomed to the environment in advance. The rats were divided into two groups of 10 rats per group, and each group was bred with a normal diet (control group) or a diet to which astaxanthin was added (Ax group) fed ad libitum. The diet to which astaxanthin was added was prepared by mixing free astaxanthin at 0.02%. At one week after the start of ingestion of astaxanthin-added diet, the sciatic nerve of the left leg was cut and muscle of the left lower extremity was inactivated. After breeding for further two weeks, rats were killed, triceps surae (soleus muscle, gastrocnemius, and plantaris) were extracted from left leg (limb in which nerves were removed) and right leg (control limb), respectively, and the wet weight of the gastrocnemius was measured. The atrophy rate was calculated using the difference of the wet weight of the gastrocnemius of left lower limb to the wet weight of the gastrocnemius of right lower limb with respect to each group Table 7. […]

RT1 class II, locus Ba = experiment: GENEchip mRNA expression in gastrocnemius; type: in vivo, rat; conditions: probe 1377334_at

## CC1=C(/C=C/C(C)=C/C=C/C(C)=C/C=C/C=C(C)/C=C/C=C(C)/C=C/C2=C(C)C(=O)C(O)CC2(C)C)C(C)(C)CC(O)C1=O (stereo not drawn) [astaxanthin, 3,3′-dihydroxy-β,β-carotene-4,4′-dione]
[1]; at the end (12 weeks), db/db mice, diet with 0.02% astaxanthin (AstaReal 50F)
  Albumin level in urine: 77.8 ± 44.6 mg/dL
[1]; at the start, astaxanthin-administered db/db mice
  Albumin level in urine: 46.2 ± 1.5 mg/dL
[1]; diabetic db/db mice, diet with 0.02% astaxanthin, 12 weeks
  blood glucose levels: reduces blood glucose levels
[1]; kidney of db/db(Ax) vs db/db mice
  enlargement of glomerular mesangium (microscope): apparently moderated
[2]; difference of wet weight of left to right gastrocnemius, Ax group
  Gastrocnemius Atrophy rate: 37.7%
[2]; risk rate 5% or less
  atrophy rate compared with the control group: smaller value of atrophy rate
RT1 class II, locus Ba; denervated left leg gastrocnemius, astaxanthin group vs control group
  gene expression intensity ratio ad/nd: 0.51
RT1 class II, locus Ba; denervated left leg gastrocnemius, astaxanthin-administered group
  luminescence intensity ad: 312
RT1 class II, locus Ba; right leg (control) gastrocnemius, astaxanthin group vs control group
  gene expression intensity ratio ac/nc: 1.60
RT1 class II, locus Ba; right leg (control) gastrocnemius, astaxanthin-administered group
  luminescence intensity ac: 220.5
